For this assay, the target named is T1, Human MC1R (Homo sapiens, UniProt Q01726).
T1 construct: endogenous in cells; host or cells: human melanoma cell line HBL
The experiment in a line: MCR agonist measurement (cAMP measurement), human MC1R agonist activity in human melanoma cell line HBL. Format: cell-based. Particulars: HBL cells; for EC50: 37° C. for 30 minutes, intracellular cAMP by fluorescence method; for Human MC1R IA %: Intrinsic Activity, vehicle cAMP = 0%, αMSH at 10^-6 M = 100%. On the procedure: (1) Method for Culturing Cells
Human MC1R agonist activity measurement was carried out by using human melanoma cell line HBL. Culture of HBL: F-10 Nutrient Mixture containing 10% FCS and Penicillin-streptomycin was used in the culture.
(2) cAMP Assay and Data Calculation
Each compound solution having each concentration was mixed with cAMP assay buffer (HBSS (Hank's Balanced Salt Solution) containing 10 mM HEPES and 0.1% BSA), and dispensed into 96 well plate. HBL was suspended in cAMP assay buffer containing 0.5 mM IBMX so that the concentrate became 5×10^4/mL, dispensed into the above 96 well plate, then mixed, left to stand at 37° C. for 30 minutes, and then the intracellular […] concentration was measured by fluorescence method using Envision (ex. 320 nm, em. 590 nm and 665 nm).

Structures are written as SMILES.

T1 sequence (Q01726 whole entry): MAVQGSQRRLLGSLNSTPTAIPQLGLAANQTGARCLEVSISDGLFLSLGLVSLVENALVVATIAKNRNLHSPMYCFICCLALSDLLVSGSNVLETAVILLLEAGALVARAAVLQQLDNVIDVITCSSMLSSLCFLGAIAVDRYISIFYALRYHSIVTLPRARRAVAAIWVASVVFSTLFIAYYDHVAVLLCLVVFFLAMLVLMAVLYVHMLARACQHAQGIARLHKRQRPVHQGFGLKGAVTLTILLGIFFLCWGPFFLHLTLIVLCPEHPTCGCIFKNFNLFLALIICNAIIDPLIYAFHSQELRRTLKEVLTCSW

For the molecule `COc1ccc([C@@H]2CN([C@H]3CC[C@H](OC)CC3)C[C@@]2(F)C(=O)N2CC[C@@H](c3ccc(F)cc3N3CCC(C(=O)O)CC3)C2)cc1` [Example 218], it took 4.3 nM to reach a half-maximal effect (EC50) and the “Human MC1R IA %” value is given as 110%. Consider `COc1ccc([C@@H]2CN(C3CCCC3)C[C@@]2(F)C(=O)N2C[C@H](c3ccc(C(F)(F)F)cc3N3CCC(C(=O)O)CC3)C[C@H]2CF)cc1` [Example 299], for which a half-maximal effect (EC50) was put at 0.7 nM and the “Human MC1R IA %” value stood at 83%.

For `CCO[C@H]1CC[C@H](N2C[C@@H](c3ccc(OC)cc3)[C@](OC)(C(=O)N3C[C@H](COC)[C@@H](c4ccc(C(F)(F)F)cc4N4CCC(C(=O)O)CC4)C3)C2)CC1` [Example 140], a half-maximal response (EC50) required 4.1 nM and the “Human MC1R IA %” value is reported as 98%.

As for `COC[C@H]1CN(C(=O)[C@]2(OC)CN(C3CCCC3)C[C@H]2c2ccc(OC)cc2)C[C@@H]1c1ccc(C(F)(F)F)cc1N1CCC(C(=O)O)CC1` [Example 125], the EC50 was 24 nM and the “Human MC1R IA %” value was found to be 74%. In the case of `COC[C@@H]1C[C@@H](c2ccc(C(F)(F)F)cc2N(C)CCCC(=O)O)CN1C(=O)[C@]1(F)CN([C@H]2CC[C@H](OC)CC2)C[C@H]1c1ccc(OC)cc1` [Example 115], it took 11 nM to reach a half-maximal effect (EC50) and the “Human MC1R IA %” value is recorded as 85%. Consider `COc1ccc([C@@H]2CN(C(C)(C)C)C[C@@]2(F)C(=O)N2CCC(c3ccc(C(F)(F)F)cc3N3CCC(C(N)=O)CC3)CC2)cc1` [Example 232], for which the EC50 amounted to 10 nM and the “Human MC1R IA %” value turned out to be 95%.

Take `CCO[C@H]1CC[C@H](N2C[C@@H](c3ccc(OC)cc3)[C@](OC)(C(=O)N3C[C@H](c4ccc(C(F)(F)F)cc4N4CCC(C(=O)O)CC4)[C@@](F)(COC)C3)C2)CC1` [Example 141]: a half-maximal effect (EC50) was put at 3.6 nM and the “Human MC1R IA %” value was 105%. On to `COC[C@H]1CN(C(=O)[C@]2(F)CN(c3ccnc(OC)c3)C[C@H]2c2ccc(OC)cc2)C[C@@H]1c1ccc(C(F)(F)F)cc1N1CCC(C(=O)O)CC1` [Example 61], for which the midpoint of the response, the EC50, lay at 30 nM and the “Human MC1R IA %” value is on record as 69%. As for `COc1ccc([C@@H]2CN(C(C)(C)C)C[C@@]2(F)C(=O)N2CCC(c3ccc(C(F)(F)F)cc3N3CCC(N(C)C)CC3)CC2)cc1` [Example 205], the EC50 turned out to be 38 nM and the “Human MC1R IA %” value is listed as 67%. For `COc1ccc([C@@H]2CN(C3CCCC3)C[C@@]2(F)C(=O)N2CC(c3ccc(C(F)(F)F)cc3N3CCC(C(=O)O)CC3)C(F)(F)C2)cc1` (single isomer, unassigned) [Example 293], the concentration giving a half-maximal response (EC50) amounted to 20 nM and the “Human MC1R IA %” value is 99%. Turning to `COc1ccc([C@@H]2CN([C@H]3CC[C@H](OC)CC3)C[C@@]2(F)C(=O)N2CC[C@@H](c3ccc(C(F)(F)F)cc3N3CCC(C(=O)O)CC3)C2)cc1` [Example 213], the EC50 stood at 0.89 nM and the “Human MC1R IA %” value came to 88%. For the molecule `COc1ccc([C@@H]2CN([C@H]3CC[C@H](OC)CC3)C[C@@]2(F)C(=O)N2CCC(c3ccc(C(F)(F)F)cc3N3CCC(C(=O)O)CC3)CC2)cc1` [Example 98], the 50% effective concentration (EC50) is 15 nM and the “Human MC1R IA %” value was determined as 89%. On to `COc1ccc([C@@H]2CN(C3CCCC3)C[C@@]2(F)C(=O)N2C[C@H](c3ccc(F)cc3N3CCC(C(=O)O)CC3)[C@@H](C)C2)cc1` [Example 100], for which the half-maximal effective concentration (EC50) was 9.7 nM and the “Human MC1R IA %” value stood at 90%. As for `COc1ccc([C@@H]2CN(C3CCCC3)C[C@@]2(F)C(=O)N2C[C@H](c3ccc(C(F)(F)F)cc3N3CCC(C(=O)O)CC3)C[C@H]2CC#N)cc1` [Example 105], the “Human MC1R IA %” value is listed as 86%. For `COc1ccc([C@@H]2CN(C(C)(C)C)C[C@@]2(F)C(=O)N2CCC(c3ccc(C(F)(F)F)cc3N3CCN(C(N)=O)CC3)CC2)cc1.Cl.Cl` [Example 284, 4-[2-(1-{[(3R,4R)-1-tert-butyl-3-fluoro-4-(4-methoxyphenyl)pyrrolidin-3-yl]carbonyl}piperidin-4-yl)-5-(trifluoromethyl)phenyl]piperazine-1-carboxamide dihydrochloride], the EC50 came to 14 nM and the “Human MC1R IA %” value amounted to 81%. As for `CCc1ccc([C@@H]2CN(C(C)(C)C)C[C@@]2(F)C(=O)N2CCC(c3ccc(C(F)(F)F)cc3N3CCC(C(=O)O)CC3)CC2)cc1` [Example 91], the half-maximal effective concentration (EC50) was 44 nM and the “Human MC1R IA %” value is reported as 74%. For the molecule `COC[C@H]1CN(C(=O)[C@]2(F)CN(C3CCCC3)C[C@H]2c2ccc(C)cc2)C[C@@H]1c1ccc(C(F)(F)F)cc1N1CCC(C(=O)O)CC1` [Example 22], the EC50 worked out at 17 nM and the “Human MC1R IA %” value is 74%. On to `COC[C@H]1CN(C(=O)[C@]2(F)CN(CC(=O)N3CCCCC3)C[C@H]2c2ccc(OC)cc2)C[C@@H]1c1ccc(C(F)(F)F)cc1N1CCC(C(=O)O)CC1` [Example 306], for which it took 6.8 nM to reach a half-maximal effect (EC50) and the “Human MC1R IA %” value stood at 96%. For `COc1ccc([C@@H]2CN(C(C)(C)C)C[C@@]2(F)C(=O)N2CCC(c3ccc(C(F)(F)F)cc3N3CCC(C(=O)N4CCCC4)CC3)CC2)cc1` [Example 235], the concentration for a half-maximal effect (EC50) came to 79 nM and the “Human MC1R IA %” value came to 124%. In the case of `COc1ccc([C@@H]2CN(C3CCOC3)C[C@@]2(F)C(=O)N2CCC(c3ccc(C(F)(F)F)cc3N3CCC(C(=O)O)CC3)CC2)cc1` (stereo partly drawn) [Example 289], the midpoint of the response, the EC50, lay at 124 nM and the “Human MC1R IA %” value was 55%.

Take `COc1ccc([C@@H]2CN(C(C)(C)C)C[C@@]2(F)C(=O)N2CC(c3ccc(C(F)(F)F)cc3N3CCC(C(=O)O)CC3)C2)cc1` [Example 84]: a half-maximal effect (EC50) was put at 40 nM and the “Human MC1R IA %” value was determined as 119%. With `COC[C@H]1CN(C(=O)[C@]2(F)CN(C3CCOCC3)C[C@H]2c2ccc(OC)cc2)C[C@@H]1c1ccc(C(F)(F)F)cc1N1CCC(c2nnn[nH]2)CC1.Cl.Cl` [Example 279, [(3R,4R)-3-fluoro-4-(4-methoxyphenyl)-1-(tetrahydro-2H-pyran-4-yl)pyrrolidin-3-yl][(3R,4S)-3-(methoxymethyl)-4-{2-[4-(1H-tetrazol-5-yl)piperidin-1-yl]-4-(trifluoromethyl)phenyl}pyrrolidin-1-yl]methanone dihydrochloride], the EC50 is 59 nM and the “Human MC1R IA %” value came to 90%.

As to `COC[C@@H]1C[C@@H](c2ccc(C(F)(F)F)cc2N2CCC(C(=O)O)CC2)CN1C(=O)[C@]1(F)CN(c2ccnc(C)c2)C[C@H]1c1ccc(OC)cc1` [Example 68], the half-maximal effective concentration (EC50) is 0.94 nM and the “Human MC1R IA %” value is 111%.

For `COC[C@H]1CN(C(=O)[C@]2(F)CN(C3CCCC3)C[C@H]2c2ccc(OC)cc2)C[C@@H]1c1ccc(C(F)(F)F)cc1N1CCC(C(=O)N(C)C)CC1` [Example 248], the concentration for a half-maximal effect (EC50) came to 5.1 nM and the “Human MC1R IA %” value is reported as 92%.

On to `COc1ccc([C@@H]2CN(C(C)(C)C)C[C@@]2(F)C(=O)N2C[C@H](c3ccc(C(F)(F)F)cc3N3CCC(C(=O)O)CC3)[C@@H](C#N)C2)cc1.Cl.Cl` [Example 227, 1-{2-[(3S,4R)-1-{[(3R,4R)-1-tert-butyl-3-fluoro-4-(4-methoxyphenyl)pyrrolidin-3-yl]carbonyl}-4-cyanopyrrolidin-3-yl]-5-(trifluoromethyl)phenyl}piperidine-4-carboxylic acid dihydrochloride], for which it took 85 nM to reach a half-maximal effect (EC50) and the “Human MC1R IA %” value turned out to be 114%. Turning to `COc1ccc([C@@H]2CN(C(C)(C)C)C[C@@]2(F)C(=O)N2CCC(c3ccc(C(F)(F)F)cc3-c3ccc(C(=O)O)cc3)CC2)cc1` [Example 77], the response was half-maximal at 69 nM (EC50) and the “Human MC1R IA %” value was found to be 83%. For the molecule `COc1ccc([C@@H]2CN(C3CCN(C(CF)CF)CC3)C[C@@]2(F)C(=O)N2CC[C@@H](c3ccc(C(F)(F)F)cc3N3CCC(C(=O)O)CC3)C2)cc1` [Example 219], the EC50 is 6.7 nM and the “Human MC1R IA %” value stood at 104%.

Take `COc1ccc([C@@H]2CN(C(C)(C)C)C[C@@]2(F)C(=O)N2CCC(c3ccc(Cl)cc3N3CCC(C(=O)O)CC3)CC2)cc1` [Example 195]: the response was half-maximal at 40 nM (EC50) and the “Human MC1R IA %” value is reported as 87%.

`COC[C@H]1CN(C(=O)[C@]2(F)CN([C@H]3CC[C@H](OC)CC3)C[C@H]2c2ccc(OC)cc2)C[C@@H]1c1ccc(C(F)(F)F)cc1N1CCC(C(=O)N(C)C)CC1` [Example 256]: the EC50 was found to be 3 nM and the “Human MC1R IA %” value stood at 115%.

In the case of `COc1ccc([C@@H]2CN(C3CCCC3)C[C@@]2(F)C(=O)N2CCCC(c3ccc(C(F)(F)F)cc3N3CCC(C(=O)O)CC3)C2)cc1` (single isomer, unassigned) [Example 291], the EC50 worked out at 734 nM and the “Human MC1R IA %” value was 67%.

As for `COc1ccc([C@@H]2CN(C(C)(C)C)C[C@@]2(F)C(=O)N2CCC(c3ccc(C(F)(F)F)cc3[C@H]3C[C@H](C(=O)O)C3)CC2)cc1` [Example 177], the EC50 was 7.4 nM and the “Human MC1R IA %” value amounted to 80%. Regarding `COc1ccc([C@@H]2CN(C3CCCC3)C[C@@]2(F)C(=O)N2C[C@H](c3ccc(C(F)(F)F)cc3N3CCC(C(=O)O)CC3)[C@@H](C(C)(C)O)C2)cc1.Cl.Cl` [Example 228, 1-{2-[(3S,4R)-1-{[(3R,4R)-1-cyclopentyl-3-fluoro-4-(4-methoxyphenyl)pyrrolidin-3-yl]carbonyl}-4-(2-hydroxypropan-2-yl)pyrrolidin-3-yl]-5-(trifluoromethyl)phenyl}piperidine-4-carboxylic acid dihydrochloride], it took 11 nM to reach a half-maximal effect (EC50) and the “Human MC1R IA %” value was determined as 77%.

As usually defined, the EC50 is the concentration that produces a half-maximal response.

Source of the values: patent publication US9981960B2, “Pyrrolidine compound and application as melanocortin receptor agonist” (MITSUBISHI TANABE PHARMA CORPORATION, priority 2014, dated 2018).
